Among the data in PubChem BioAssay AID687005 (Broad Institute, 2013) are activity change, negative = cytotoxicity values, retold here.

Molecules are shown by their SMILES. Records with an inconclusive call do not appear. Activity calls are given as the source filed them.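 Rule for the calls: active = Compounds that reduce signal, with fitted half-maximal dose at or under twice the top valid tested dose; inconclusive = Poor fit, or flat curve losing 30 to 70% of signal; inactive = Potency past limit, flat within 30%, or opposite direction.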

The nature of the first assay: HEK293T cell cytotoxicity, dose response, cytotoxicity control, ATP luminescence, cherry-pick samples (AID 687005). Particulars: HEK293T viability, ATP luminescence (CellTiter-Glo), 48 h; at 23.5 µM (top of the series).
With `CC(C)NC(=O)Nc1ccc2c(c1)CC(=O)N([C@H](C)CO)C[C@H](C)[C@H](CN(C)S(=O)(=O)c1ccc(Cl)cc1)O2`, the activity change, negative = cytotoxicity was 39.4% (inactive).
As for `COc1cccc(C#Cc2cnc3c(c2)C(=O)N([C@H](C)CO)C[C@@H](C)[C@@H](CN(C)C(=O)C2CCOCC2)O3)c1`, the activity change, negative = cytotoxicity was 6.67% (inactive).
Same read-out and setting: the same measure for `C[C@H](CO)N1C[C@H](C)[C@H](CN(C)Cc2cccc(C(F)(F)F)c2)OCc2cnnn2CCCC1=O`: 0.8% (inactive); for `C[C@H](CO)N1C[C@H](C)[C@@H](CN(C)S(=O)(=O)c2ccc(Cl)cc2)Oc2c(NS(=O)(=O)c3ccc(F)cc3)cccc2C1=O`: -1.86% (inactive).
Still for that read-out and setting: under `C[C@H](CO)N1C[C@H](C)[C@H](CN(C)CC2CCCCC2)Oc2ccc(NC(=O)Nc3ccc4c(c3)OCO4)cc2C1=O` stands -3.46% (inactive).
Still for that read-out and setting: under `C[C@@H]1CN([C@@H](C)CO)C(=O)c2cc(NC(=O)Nc3ccc4c(c3)OCO4)ccc2O[C@H]1CN(C)Cc1ccc(Oc2ccccc2)cc1` stands -38.4% (inactive).

Still in this assay, the particulars now being: HEK293T viability, ATP luminescence (CellTiter-Glo), 48 h; at 26 µM (top of the series).
With `CCc1ccc(NC(=O)[C@H](C)NC(=O)C2CCN(C(=O)[C@@H](N)C(C)C)CC2)cc1`, the activity change, negative = cytotoxicity was -17.1% (inactive).
Still for that read-out and setting: under `COCCNC(=O)C[C@@H]1C[C@H]2c3cc(NC(=O)C4CCC4)ccc3O[C@H]2[C@@H](CO)O1` stands 3.65% (inactive).
As to `C[C@H](CO)N1C[C@H](C)[C@@H](CN(C)Cc2ccc(-c3ccccc3)cc2)Oc2ccc(NC(=O)Nc3ccc(C(F)(F)F)cc3)cc2C1=O`, the activity change, negative = cytotoxicity was -3.25% (inactive).
Same read-out and setting: under `O=C(Nc1ccc(F)cc1)N1C[C@@H]2[C@H](c3ccccc31)[C@H](CO)N2Cc1cocn1` stands -11.6% (inactive); under `CC(C)NC(=O)N(C)C[C@H]1OCCCC[C@H](C)Oc2ccc(NC(=O)c3ccccc3)cc2C(=O)N([C@@H](C)CO)C[C@@H]1C`, 55.3% (inactive).
Take `C[C@H](CO)N1C[C@H](C)[C@H](CN(C)C(=O)NC2CCCCC2)OCCCC[C@H](C)Oc2ccc(NS(=O)(=O)c3cn(C)cn3)cc2C1=O`: the activity change, negative = cytotoxicity is 3.14% (inactive).
Regarding `COCCNC(=O)C[C@@H]1C[C@@H]2c3cc(NC(=O)C4CCOCC4)ccc3O[C@@H]2[C@@H](CO)O1`, the activity change, negative = cytotoxicity is -3.7% (inactive).
The same measure, in the same setting: the same measure for `CCS(=O)(=O)N1CCCCN2[C@H](CO)[C@@H](c3ccc(-c4ccc(C#N)cc4)cc3)[C@@H]2C1`: 2.55% (inactive).
Same read-out and setting: the same measure for `Cc1ccc(C)c(NC(=O)C2(C)CCN2C(=O)C(C)C)c1` (stereo unspecified): -19.7% (inactive).
For `O=C(c1ccco1)N1N=C(c2cccs2)CC1c1cc([N+](=O)[O-])ccc1O` (stereo unspecified), the activity change, negative = cytotoxicity is 37.4% (inactive).
The same measure, in the same setting: the same measure for `C[C@@H]1CN([C@@H](C)CO)C(=O)c2cccc(N(C)C)c2O[C@H]1CN(C)C(=O)Nc1ccc(C(F)(F)F)cc1`: -5.69% (inactive); for `CCCNC(=O)N(C)C[C@H]1Oc2ncc(C#CC3CCCCC3)cc2C(=O)N([C@@H](C)CO)C[C@@H]1C`: 9.03% (inactive); for `COc1ccc(CN(C)C[C@H]2Oc3ccc(NS(C)(=O)=O)cc3CC(=O)N([C@@H](C)CO)C[C@H]2C)cc1`: -1.35% (inactive).
On the same count and under the same terms, the same measure for `Cc1cccc(NC(=O)CN(C)C(=O)C2CCCC2)c1C`: -33.5% (inactive); for `C[C@@H]1CN([C@@H](C)CO)C(=O)c2cc(NC(=O)C3CC3)ccc2O[C@H]1CN(C)Cc1ccc2c(c1)OCO2`: 9.22% (inactive).
The same measure, in the same setting: under `CC(=O)NNC(=O)CSc1nnc(-c2ccccc2)c(-c2ccccc2)n1` stands -4.35% (inactive).
As for `COc1cc(C(=O)Oc2ccccc2N)cc(OC)c1OC`, the activity change, negative = cytotoxicity was 1.38% (inactive).
The same measure, in the same setting: under `C[C@H]1CN([C@@H](C)CO)C(=O)c2cccc(NS(=O)(=O)c3ccc(Cl)cc3)c2O[C@@H]1CN(C)CC1CC1` stands 18% (inactive); under `Cc1cccc(C)c1NC(=O)CN(C)C(=O)C1CCCCC1`, -11.8% (inactive); under `COc1ccc(CN(C)C[C@@H]2Oc3ccc(NC(=O)C4CC4)cc3C(=O)N([C@H](C)CO)C[C@H]2C)cc1`, 15.3% (inactive).
The same measure, in the same setting: under `CC(C)NC(=O)NCC[C@@H]1CC[C@@H](NC(=O)CN(C)C)[C@@H](CO)O1` stands 44.1% (inactive); under `O=C(COc1ccc2c(c1)CCC2)NCc1ccccc1`, 1.59% (inactive).
In the case of `CC(C)(C)SCCNC(=O)CN(c1ccccc1)S(=O)(=O)c1ccc(F)cc1`, the activity change, negative = cytotoxicity was -6.34% (inactive).
Same read-out and setting: the same measure for `COc1ccccc1-c1ccc2c(c1)O[C@@H](CN(C)C(=O)c1cccnc1)[C@H](C)CN([C@@H](C)CO)S2(=O)=O`: -38% (inactive); for `CC(=O)N1[C@@H]2CN(S(=O)(=O)c3ccccc3F)c3ccccc3[C@@H]2[C@@H]1CO`: 5.73% (inactive).
Same read-out and setting: under `C[C@@H]1CN([C@H](C)CO)C(=O)c2cc(C3=CCCCC3)cnc2O[C@H]1CN(C)C(=O)Cc1cccnc1` stands -11.9% (inactive).
As for `O=C(Nc1ccccc1)N[C@@H]1CC[C@@H](CCNC(=O)c2ccccc2F)O[C@H]1CO`, the activity change, negative = cytotoxicity is -29.3% (inactive).
Turning to `COc1ccccc1NC(=O)N[C@@H]1CC[C@@H](CCn2cc(C3(O)CCCC3)nn2)O[C@H]1CO`, the activity change, negative = cytotoxicity is 9.21% (inactive).
On the same count and under the same terms, the same measure for `O=S1(=O)CCC(N=Cc2cc(Br)ccc2O)C1` (stereo unspecified): 37.7% (inactive); for `C[C@H](CO)N1C[C@H](C)[C@H](CN(C)Cc2cccnc2)Oc2ncc(C#CC3(O)CCCC3)cc2C1=O`: -14.5% (inactive).
With `C[C@H]1CN([C@@H](C)CO)C(=O)Cc2cc(NS(=O)(=O)c3ccc(F)cc3)ccc2O[C@@H]1CN(C)S(=O)(=O)c1ccc(F)cc1`, the activity change, negative = cytotoxicity is -11.2% (inactive).
With `CNC[C@H]1Oc2cc(Br)ccc2S(=O)(=O)N([C@H](C)CO)C[C@H]1C`, the activity change, negative = cytotoxicity was 37.7% (inactive).
On to `Cc1ccccc1OCC(=O)NCc1ccccc1`, for which the activity change, negative = cytotoxicity is 2.49% (inactive).
Still for that read-out and setting: under `C[C@@H](O)C#Cc1ccc([C@@H]2[C@H]3CN(CC4CC4)CCCCN3[C@H]2CO)cc1` stands 34.5% (inactive); under `C[C@H]1CN([C@@H](C)CO)S(=O)(=O)c2ccc(C#Cc3cccc(F)c3)cc2O[C@@H]1CN(C)C`, -49.7% (inactive); under `O=C([C@H]1[C@H](CO)[C@H]2Cn3c(cccc3=O)[C@@H]1N2Cc1cccc(Cl)c1)N1CCOCC1`, -20.6% (inactive).
Same read-out and setting: under `CO[C@@H]1CN(C)C(=O)c2cc(NS(=O)(=O)c3cccc(C)c3)ccc2OC[C@@H](C)NC[C@H]1C` stands 4.92% (inactive); under `C[C@@H]1CCCCO[C@H](CN(C)C(=O)c2ccncc2)[C@H](C)CN([C@H](C)CO)C(=O)c2cc(NC(=O)CCC(F)(F)F)ccc2O1`, -23.2% (inactive); under `C[C@@H]1CN([C@H](C)CO)C(=O)c2cc(-c3cccc(F)c3)cnc2O[C@H]1CN(C)Cc1ccccc1`, -7.8% (inactive).
Regarding `COc1cccc(-c2cn(CC[C@@H]3CC[C@@H](NC(C)=O)[C@H](CO)O3)nn2)c1`, the activity change, negative = cytotoxicity was 53.3% (inactive).
On the same count and under the same terms, under `CCCN(C)C[C@@H]1OCCCC[C@H](C)Oc2ccc(NS(=O)(=O)c3ccc(C)cc3)cc2C(=O)N([C@H](C)CO)C[C@@H]1C` stands 37.3% (inactive); under `COCC(=O)N(C)C[C@H]1Oc2ncc(-c3ccccc3F)cc2C(=O)N([C@@H](C)CO)C[C@H]1C`, -32.3% (inactive).
Still for that read-out and setting: under `C/C=C/c1ccc([C@@H]2[C@@H](CO)N3CCCCN(C(=O)Nc4ccc(OC)cc4)C[C@H]23)cc1` stands 48.4% (inactive); under `CC(C)NC(=O)Nc1ccc2c(c1)C(=O)N([C@H](C)CO)C[C@@H](C)[C@H](CN(C)C(=O)Nc1ccccc1)OCCCC[C@@H](C)O2`, 37.7% (inactive).
Same read-out and setting: the same measure for `C[C@@H]1CN([C@@H](C)CO)C(=O)c2cc(-c3cncnc3)cnc2O[C@H]1CN(C)C(=O)CN1CCOCC1`: -25.3% (inactive).
On to `CNC(=O)C[C@@H]1CC[C@@H]2[C@H](COC[C@H](O)CN2S(=O)(=O)c2cccc(Cl)c2)O1`, for which the activity change, negative = cytotoxicity is 3.1% (inactive).
Same read-out and setting: the same measure for `COc1ccc(N2CCN(C(=O)CSc3ncnc4c3cnn4-c3ccc(OC)cc3)CC2)cc1`: -4.11% (inactive); for `C[C@H](O)C#Cc1ccc2c(c1)O[C@H](CN(C)C(=O)C1CCCCC1)[C@H](C)CN([C@@H](C)CO)S2(=O)=O`: 34.3% (inactive).
Still for that read-out and setting: the same measure for `Cc1cc(C)cc(OCC(=O)NC(C)c2ccccc2)c1` (stereo unspecified): 14.9% (inactive).
With `C[C@@H]1CN([C@@H](C)CO)C(=O)c2cccc(NC(=O)C3CC3)c2O[C@@H]1CN(C)C`, the activity change, negative = cytotoxicity is -4.49% (inactive).
Still for that read-out and setting: under `Cc1noc(C)c1S(=O)(=O)N(C)C[C@H]1OCCCC[C@@H](C)Oc2ccc(NC(=O)CCCCCC(=O)Nc3ccccc3N)cc2C(=O)N([C@@H](C)CO)C[C@@H]1C` stands -1.73% (inactive).
Same read-out and setting: the same measure for `Fc1cccc(CCN2C(=S)NC[C@@H]2Cc2ccccc2)c1`: -28.1% (inactive); for `CCNC(=O)C[C@H]1CC[C@H](NC(=O)NC2CCCCC2)[C@@H](CO)O1`: -1.55% (inactive); for `CCCNC(=O)N1C[C@@H](O)COC[C@H]2O[C@H](CC(=O)N3CCN(C)CC3)CC[C@@H]21`: -7.83% (inactive).

The same assay, now with this note: HEK293T viability, ATP luminescence (CellTiter-Glo), 48 h; at 46 µM (top of the series).
As to `CCCC(=O)N1CCC1(C)C(=O)Nc1ccc(C)cc1` (stereo unspecified), the activity change, negative = cytotoxicity was -12.7% (inactive).
